Source: PubChem BioAssay (NCI)
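Each compound was tested at five concentrations against cells in 96-well plates for 48 hours. TGI: total growth inhibition.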

Columns and labels:
Test in all cases: growth of human tumour cells (NCI), 48 h
NCI-H522 lung = system: NCI-H522 lung
T-47D breast = system: T-47D breast
SK-MEL-2 melanoma = system: SK-MEL-2 melanoma
HOP-92 NSCLC = system: HOP-92 NSCLC
CAKI-1 renal = system: CAKI-1 renal
OVCAR-3 ovarian = system: OVCAR-3 ovarian
UO-31 renal = system: UO-31 renal
DU-145 prostate = system: DU-145 prostate
HCT-15 colon = system: HCT-15 colon
MDA-MB-231 breast = system: MDA-MB-231 breast
CCRF-CEM leukemia = system: CCRF-CEM leukemia
MOLT-4 leukemia = system: MOLT-4 leukemia
SF-268 CNS = system: SF-268 CNS
BT-549 breast = system: BT-549 breast
NCI-H460 lung = system: NCI-H460 lung
IGROV1 ovarian = system: IGROV1 ovarian
RXF 393 renal = system: RXF 393 renal
HCT-116 colon = system: HCT-116 colon
SK-OV-3 ovarian = system: SK-OV-3 ovarian
MCF7 breast = system: MCF7 breast
RPMI-8226 leukemia = system: RPMI-8226 leukemia
SW-620 colon = system: SW-620 colon
HCC-2998 colon = system: HCC-2998 colon
M14 melanoma = system: M14 melanoma
HOP-62 NSCLC = system: HOP-62 NSCLC
SF-295 CNS = system: SF-295 CNS
MDA-MB-435 = system: MDA-MB-435
OVCAR-5 ovarian = system: OVCAR-5 ovarian
A549 NSCLC = system: A549 NSCLC
U251 CNS = system: U251 CNS
SNB-75 CNS = system: SNB-75 CNS
NCI/ADR-RES ovarian = system: NCI/ADR-RES ovarian
OVCAR-4 ovarian = system: OVCAR-4 ovarian
COLO 205 colon = system: COLO 205 colon
OVCAR-8 ovarian = system: OVCAR-8 ovarian
NCI-H23 lung = system: NCI-H23 lung
SR leukemia = system: SR leukemia
KM12 colon = system: KM12 colon
SN12C renal = system: SN12C renal
SNB-19 CNS = system: SNB-19 CNS
UACC-257 melanoma = system: UACC-257 melanoma
SK-MEL-5 melanoma = system: SK-MEL-5 melanoma
786-0 renal = system: 786-0 renal
HS 578T breast = system: HS 578T breast
NCI-H226 lung = system: NCI-H226 lung
UACC-62 melanoma = system: UACC-62 melanoma
HT29 colon = system: HT29 colon
LOX IMVI melanoma = system: LOX IMVI melanoma
PC-3 prostate = system: PC-3 prostate
SF-539 CNS = system: SF-539 CNS
MDA-N = system: MDA-N
SK-MEL-28 melanoma = system: SK-MEL-28 melanoma
A498 renal = system: A498 renal
TK-10 renal = system: TK-10 renal
MALME-3M melanoma = system: MALME-3M melanoma
ACHN renal = system: ACHN renal
K-562 leukemia = system: K-562 leukemia
EKVX NSCLC = system: EKVX NSCLC
HL-60(TB) leukemia = system: HL-60(TB) leukemia

Compound `c1ccc(COc2ccc(C[P+](c3ccccc3)(c3ccccc3)c3ccccc3)cc2)cc1` has a TGI (NCI-H522 lung) of 1.61 µM, a TGI (T-47D breast) of 0.839 µM and a TGI (SK-MEL-2 melanoma) of 0.727 µM. The TGI (HOP-92 NSCLC) was 0.585 µM, the TGI (CAKI-1 renal) was 20.2 µM and the TGI (OVCAR-3 ovarian) was 11 µM. For the same compound, the TGI (UO-31 renal) was 11 µM, the TGI (DU-145 prostate) was 12.9 µM and the TGI (HCT-15 colon) was 13.6 µM. For the same compound, the TGI (MDA-MB-231 breast) was 4.86 µM, the TGI (CCRF-CEM leukemia) was 7.28 µM and the TGI (MOLT-4 leukemia) was 1.94 µM. It also gave a TGI (SF-268 CNS) of 14.2 µM, a TGI (BT-549 breast) of 3.26 µM and a TGI (NCI-H460 lung) of 3.81 µM. It also gave a TGI (IGROV1 ovarian) of 12.3 µM, a TGI (RXF 393 renal) of 0.361 µM and a TGI (HCT-116 colon) of 1.68 µM. It also gave a TGI (SK-OV-3 ovarian) of 3.42 µM, a TGI (MCF7 breast) of 1.52 µM and a TGI (RPMI-8226 leukemia) of 0.201 µM. It also gave a TGI (SW-620 colon) of 10.2 µM, a TGI (HCC-2998 colon) of 4.81 µM and a TGI (M14 melanoma) of 4.97 µM. The TGI (HOP-62 NSCLC) was 3.37 µM, the TGI (SF-295 CNS) was 2.97 µM and the TGI (MDA-MB-435) was 1.7 µM. It also gave a TGI (OVCAR-5 ovarian) of 2.2 µM, a TGI (A549 NSCLC) of 11.3 µM and a TGI (U251 CNS) of 11.8 µM. For the same compound, the TGI (SNB-75 CNS) was 2.99 µM, the TGI (NCI/ADR-RES ovarian) was 49.1 µM and the TGI (OVCAR-4 ovarian) was 1.84 µM. The TGI (COLO 205 colon) was 3.26 µM, the TGI (OVCAR-8 ovarian) was 2.18 µM and the TGI (NCI-H23 lung) was 1.36 µM. For the same compound, the TGI (SR leukemia) was > 24.2 µM, the TGI (KM12 colon) was 1.66 µM and the TGI (SN12C renal) was 5.03 µM. The TGI (SNB-19 CNS) was 14.8 µM, the TGI (UACC-257 melanoma) was 11.6 µM and the TGI (SK-MEL-5 melanoma) was 0.284 µM. It also gave a TGI (786-0 renal) of 3.57 µM, a TGI (HS 578T breast) of 3.19 µM and a TGI (NCI-H226 lung) of 22.4 µM. It also gave a TGI (UACC-62 melanoma) of 1.74 µM, a TGI (HT29 colon) of 2.02 µM and a TGI (LOX IMVI melanoma) of 2.56 µM. The TGI (PC-3 prostate) was 3.07 µM, the TGI (SF-539 CNS) was 3.5 µM and the TGI (MDA-N) was 5.86 µM. For the same compound, the TGI (SK-MEL-28 melanoma) was 5.04 µM, the TGI (A498 renal) was 5.51 µM and the TGI (TK-10 renal) was 1.66 µM. It also gave a TGI (MALME-3M melanoma) of 1.82 µM, a TGI (ACHN renal) of 6.39 µM and a TGI (K-562 leukemia) of 2.17 µM. For the same compound, the TGI (EKVX NSCLC) was 3.04 µM.

In the case of `CN(C)c1c(Cl)c(=O)oc2c1ccc1nc(-c3ccccc3)sc12`, the TGI (NCI-H522 lung) is reported as > 100 µM, the TGI (T-47D breast) is reported as > 100 µM and the TGI (HOP-92 NSCLC) is reported as > 100 µM. The TGI (CAKI-1 renal) was > 100 µM, the TGI (OVCAR-3 ovarian) was > 100 µM and the TGI (UO-31 renal) was > 100 µM. The TGI (DU-145 prostate) was > 100 µM, the TGI (HCT-15 colon) was > 100 µM and the TGI (MDA-MB-231 breast) was > 100 µM. The TGI (CCRF-CEM leukemia) was > 100 µM, the TGI (MOLT-4 leukemia) was > 100 µM and the TGI (SF-268 CNS) was > 100 µM. The TGI (BT-549 breast) was > 100 µM, the TGI (NCI-H460 lung) was > 100 µM and the TGI (IGROV1 ovarian) was > 100 µM. The TGI (RXF 393 renal) was > 100 µM, the TGI (HCT-116 colon) was > 100 µM and the TGI (MCF7 breast) was > 100 µM. For the same compound, the TGI (RPMI-8226 leukemia) was > 100 µM, the TGI (SW-620 colon) was > 100 µM and the TGI (HCC-2998 colon) was > 100 µM. For the same compound, the TGI (M14 melanoma) was > 100 µM, the TGI (HOP-62 NSCLC) was > 100 µM and the TGI (SF-295 CNS) was > 100 µM. For the same compound, the TGI (MDA-MB-435) was > 100 µM, the TGI (OVCAR-5 ovarian) was > 100 µM and the TGI (A549 NSCLC) was > 100 µM. The TGI (U251 CNS) was > 100 µM, the TGI (NCI/ADR-RES ovarian) was > 100 µM and the TGI (OVCAR-4 ovarian) was > 100 µM. The TGI (COLO 205 colon) was > 100 µM, the TGI (OVCAR-8 ovarian) was > 100 µM and the TGI (NCI-H23 lung) was > 100 µM. The TGI (SR leukemia) was > 100 µM, the TGI (KM12 colon) was > 100 µM and the TGI (SN12C renal) was > 100 µM. The TGI (SNB-19 CNS) was > 100 µM, the TGI (UACC-257 melanoma) was > 100 µM and the TGI (SK-MEL-5 melanoma) was > 100 µM. For the same compound, the TGI (786-0 renal) was > 100 µM, the TGI (HL-60(TB) leukemia) was > 100 µM and the TGI (HS 578T breast) was > 100 µM. The TGI (NCI-H226 lung) was > 100 µM, the TGI (UACC-62 melanoma) was > 100 µM and the TGI (HT29 colon) was > 100 µM. The TGI (LOX IMVI melanoma) was > 100 µM, the TGI (PC-3 prostate) was > 100 µM and the TGI (SF-539 CNS) was > 100 µM. The TGI (MDA-N) was > 100 µM, the TGI (SK-MEL-28 melanoma) was > 100 µM and the TGI (A498 renal) was > 100 µM. For the same compound, the TGI (TK-10 renal) was > 100 µM, the TGI (MALME-3M melanoma) was > 100 µM and the TGI (ACHN renal) was > 100 µM. The TGI (K-562 leukemia) was > 100 µM and the TGI (EKVX NSCLC) was > 100 µM.

`COc1ccc(C2SCC(=O)N2N=C2NC(=O)CC(=O)N2)cc1` (centres undefined) was tested, and the TGI (NCI-H522 lung) was > 100 µM, the TGI (T-47D breast) was > 100 µM and the TGI (SK-MEL-2 melanoma) was > 100 µM. The TGI (HOP-92 NSCLC) was > 100 µM, the TGI (CAKI-1 renal) was > 100 µM and the TGI (OVCAR-3 ovarian) was > 100 µM. The TGI (UO-31 renal) was > 100 µM, the TGI (DU-145 prostate) was > 100 µM and the TGI (HCT-15 colon) was > 100 µM. For the same compound, the TGI (MDA-MB-231 breast) was > 100 µM, the TGI (CCRF-CEM leukemia) was > 100 µM and the TGI (MOLT-4 leukemia) was > 100 µM. For the same compound, the TGI (SF-268 CNS) was > 100 µM, the TGI (BT-549 breast) was > 100 µM and the TGI (NCI-H460 lung) was > 100 µM. The TGI (IGROV1 ovarian) was > 100 µM, the TGI (RXF 393 renal) was > 100 µM and the TGI (HCT-116 colon) was > 100 µM. The TGI (SK-OV-3 ovarian) was > 100 µM, the TGI (MCF7 breast) was > 100 µM and the TGI (RPMI-8226 leukemia) was > 100 µM. The TGI (SW-620 colon) was > 100 µM, the TGI (HCC-2998 colon) was > 100 µM and the TGI (M14 melanoma) was > 100 µM. For the same compound, the TGI (HOP-62 NSCLC) was > 100 µM, the TGI (SF-295 CNS) was > 100 µM and the TGI (MDA-MB-435) was > 100 µM. The TGI (OVCAR-5 ovarian) was > 100 µM, the TGI (A549 NSCLC) was > 100 µM and the TGI (U251 CNS) was > 100 µM. For the same compound, the TGI (SNB-75 CNS) was > 100 µM, the TGI (NCI/ADR-RES ovarian) was > 100 µM and the TGI (OVCAR-4 ovarian) was > 100 µM. The TGI (COLO 205 colon) was > 100 µM, the TGI (OVCAR-8 ovarian) was > 100 µM and the TGI (NCI-H23 lung) was > 100 µM. For the same compound, the TGI (SR leukemia) was > 100 µM, the TGI (KM12 colon) was > 100 µM and the TGI (SN12C renal) was > 100 µM. The TGI (UACC-257 melanoma) was > 100 µM, the TGI (SK-MEL-5 melanoma) was > 100 µM and the TGI (786-0 renal) was > 100 µM. For the same compound, the TGI (HS 578T breast) was > 100 µM, the TGI (NCI-H226 lung) was > 100 µM and the TGI (UACC-62 melanoma) was > 100 µM. The TGI (HT29 colon) was > 100 µM, the TGI (PC-3 prostate) was > 100 µM and the TGI (SF-539 CNS) was > 100 µM. For the same compound, the TGI (MDA-N) was > 100 µM, the TGI (SK-MEL-28 melanoma) was > 100 µM and the TGI (A498 renal) was > 100 µM. The TGI (TK-10 renal) was > 100 µM, the TGI (MALME-3M melanoma) was > 100 µM and the TGI (ACHN renal) was > 100 µM. For the same compound, the TGI (K-562 leukemia) was > 100 µM.
